Reference: DBAASP
≈ marks a conversion by molar mass, not a printed value.

Tests used:
Test in all cases: ≥ marks a high value that may be exact or a test limit, other limits are often not marked, values filed in µg/mL are converted to µM
[1] = system: Listeria monocytogenes LO28
[2] = system: Cronobacter sakazakii DPC 6440
[3] = system: Staphylococcus epidermidis ATCC 12228
[4] = system: Salmonella enterica subsp. enterica serovar Typhimurium C77-31
[5] = system: Bacillus subtilis CMCC 63501
[6] = system: Staphylococcus aureus ATCC 29213
[7] = system: Salmonella enterica subsp. enterica serovar Pullorum C79-13
[8] = system: Pseudomonas aeruginosa ATCC 27853
[9] = system: Enterococcus faecalis ATCC 29212
[10] = system: Escherichia coli ATCC 25922
[11] = system: Staphylococcus aureus ATCC BAA-1556
[12] = system: Pseudomonas syringae pv. syringae EPS 94
[13] = system: Erwinia amylovora PMV 6076

Q: For CC[C@H](C)[C@H](NC(=O)[C@@H](N)Cc1c[nH]c2ccccc12)C(=O)N[C@@H](CCC(N)=O)C(=O)N1CCC[C@H]1C(=O)N[C@@H](CCCCN)C(=O)N[C@H](C(=O)N[C@@H](C)C(=O)N[C@H](C(=O)N[C@H](C(=O)N1CCC[C@H]1C(=O)N[C@@H](Cc1ccc(O)cc1)C(=O)N[C@H](C(=O)N[C@@H](CCCN=C(N)N)C(=O)N[C@@H](Cc1ccc(O)cc1)C(=O)N[C@@H](CC(C)C)C(=O)O)C(C)C)[C@@H](C)CC)C(C)C)[C@@H](C)O [WIQPKTAVIPYVRYL], which MIC [1] is on record?
A: The MIC was no less than 39.1 µM.

Q: And the MIC [2]?
A: Its MIC is no less than 312 µM.

Q: What does the source list for CC[C@H](C)[C@H](NC(=O)[C@@H](N)Cc1c[nH]c2ccccc12)C(=O)N[C@@H](CCC(N)=O)C(=O)N1CCC[C@H]1C(=O)N[C@@H](CCCCN)C(=O)N[C@H](C(=O)N[C@@H](CCCCN)C(=O)N[C@H](C(=O)N[C@H](C(=O)N1CCC[C@H]1C(=O)N[C@@H](Cc1ccc(O)cc1)C(=O)N[C@H](C(=O)N[C@@H](CCCN=C(N)N)C(=O)N[C@@H](C)C(=O)N[C@@H](CC(C)C)C(=O)O)C(C)C)[C@@H](C)CC)C(C)C)[C@@H](C)O [WIQPKTKVIPYVRAL]?
A: MIC [1]: 19.5 µM (≈ 35.4 µg/mL); MIC [2]: ≥ 78.1 µM

Q: With CC[C@H](C)[C@H](NC(=O)[C@@H](N)Cc1c[nH]c2ccccc12)C(=O)N[C@@H](CCC(N)=O)C(=O)N1CCC[C@H]1C(=O)N[C@@H](C)C(=O)N[C@H](C(=O)N[C@@H](C)C(=O)N[C@H](C(=O)N[C@H](C(=O)N1CCC[C@H]1C(=O)N[C@@H](Cc1ccc(O)cc1)C(=O)N[C@H](C(=O)N[C@@H](CCCN=C(N)N)C(=O)N[C@@H](Cc1ccc(O)cc1)C(=O)N[C@@H](CC(C)C)C(=O)O)C(C)C)[C@@H](C)CC)C(C)C)[C@@H](C)O [WIQPATAVIPYVRYL] as the molecule, how does the MIC [1] read?
A: The MIC was no less than 156 µM.

Q: And the MIC [2]?
A: The MIC was no less than 625 µM.

Q: With NC(=O)[C@H](Cc1ccccc1)NC(=O)[C@H](CCCN=C(N)N)NC(=O)[C@H](Cc1ccccc1)NC(=O)[C@H](CCCN=C(N)N)NC(=O)[C@H](CS)NC(=O)[C@H](Cc1ccccc1)NC(=O)[C@H](CCCN=C(N)N)NC(=O)[C@H](CCCN=C(N)N)NC(=O)[C@H](CCCN=C(N)N)NC(=O)[C@H](CS)NC(=O)[C@H](CCCN=C(N)N)NC(=O)[C@H](Cc1ccccc1)NC(=O)[C@H](CCCN=C(N)N)NC(=O)[C@@H](N)Cc1ccccc1 [FRFRCRRRFCRFRF] as the molecule, how does the MIC [3] read?
A: Its MIC is 2 µM (≈ 4.11 µg/mL).

Q: What about the MIC [4] of the same molecule?
A: The MIC was 2 µM (≈ 4.11 µg/mL).

Q: What about the MIC [5] of the same molecule?
A: Its MIC is 2 µM (≈ 4.11 µg/mL).

Q: And the MIC [6]?
A: The MIC was 2 µM (≈ 4.11 µg/mL).

Q: And the MIC [7]?
A: Its MIC is 1 µM (≈ 2.05 µg/mL).

Q: And the MIC [8]?
A: The MIC was 4 µM (≈ 8.21 µg/mL).

Q: What about the MIC [9] of the same molecule?
A: Its MIC is 4 µM (≈ 8.21 µg/mL).

Q: What about the MIC [10] of the same molecule?
A: Its MIC is 1 µM (≈ 2.05 µg/mL).

Q: CC[C@H](C)[C@H](NC(=O)[C@@H](N)Cc1c[nH]c2ccccc12)C(=O)N[C@@H](CCCN=C(N)N)C(=O)N[C@@H](Cc1c[nH]c2ccccc12)C(=O)N[C@@H](CC(C)C)C(N)=O [WIRWL] was tested. Which MIC [11] did it give?
A: The MIC was no less than 100 µM.

Q: For CC(C)C[C@H](NC(=O)[C@H](CC(C)C)NC(=O)[C@H](Cc1c[nH]c2ccccc12)NC(=O)[C@H](CCCCN)NC(=O)[C@H](CC(C)C)NC(=O)[C@H](CC(C)C)NC(=O)[C@H](CCCCN)NC(=O)[C@@H](N)CCCCN)C(N)=O [KKLLKWLL], which MIC [11] is on record?
A: Its MIC is no less than 100 µM.

Q: What does the source list for CC[C@H](C)[C@H](NC(=O)[C@@H](NC(=O)[C@H](CCCCN)NC(=O)[C@@H](N)[C@@H](C)O)C(C)C)C(=O)N1CCC[C@H]1C(=O)N[C@@H](Cc1ccc(O)cc1)C(=O)N[C@H](C(=O)N[C@@H](CCCN=C(N)N)C(=O)N[C@@H](Cc1ccc(O)cc1)C(=O)N[C@@H](CC(C)C)C(=O)O)C(C)C [TKVIPYVRYL]?
A: MIC [1]: ≥ 78.1 µM; MIC [2]: ≥ 156 µM

Q: With CC[C@H](C)[C@H](NC(=O)[C@H](CCCCN)NC(=O)[C@H](CCCCN)NC(=O)[C@H](Cc1ccccc1)NC(=O)[C@H](CC(C)C)NC(=O)[C@H](CCCCN)NC(=O)[C@H](CCCCN)NC(=O)CN)C(=O)N[C@@H](CC(C)C)C(=O)N[C@@H](CCCCN)C(=O)N[C@@H](Cc1ccc(O)cc1)C(=O)N[C@@H](CC(C)C)C(=O)N[C@@H](C)C(=O)NCC(=O)N1CCC[C@H]1C(=O)N[C@@H](C)C(=O)N[C@@H](CCCCN)C(=O)N[C@@H](Cc1ccccc1)C(=O)N[C@@H](CC(C)C)C(=O)N[C@@H](Cc1cnc[nH]1)C(=O)N[C@@H](CO)C(=O)N[C@@H](C)C(=O)N[C@@H](CCCCN)C(=O)O [GKKLFKKILKYLAGPAKFLHSAK] as the molecule, how does the MIC [12] read?
A: The MIC was 3.54 µM (≈ 9.15 µg/mL).

Q: And the MIC [13]?
A: Its MIC is 1.77 µM (≈ 4.57 µg/mL).
